Measurements taken from patent US6683070B2, “Aqueous suspension with good redispersibility” (Senju Pharmaceutical Co., Ltd., priority 1997, dated 2004).
Blank lines part the entries; values can stand above or below the compound they belong to.

Columns and labels:
[1] = Redispersibility test: redispersion time and visual condition after standing at 25° C. for 4 days; assay type: physicochemical
Description: (§1) Solutions containing a suspending agent in concentrations ranging from 0.000001 to 0.5 w/v % were first prepared. A test drug was added to the solutions to prepare aqueous suspensions. The surface tension of each aqueous suspension thus prepared was measured with the Du Noüy tension meter K122 (Krüss). The suspensions were then filled into 5 ml colorless polypropylene bottles and allowed to stand at 25° C. for 4 days. Each bottle was caused to spin (60 rpm) on the variable mix rotor VMR-5 (60 rpm, manufactured by Iuchi) and the time required for redispersion was measured. In addition, the condition of the redispersed particles was visually examined. As the suspending agent, hydroxypropylmethyl cellulose [Metolose 60SH (TC-5E); manufactured by Shin-Etsu Chemical Co., Ltd.; hereinafter abbreviated as HPMC], methylcellulose (Metolose SM-25; manufactured by Shin-Etsu Chemical Co., Ltd.; abbreviated as MC), or polyvinylpyrrolidone (K30; manufactured by BASF; abbreviated as PVP) was used. As the test drug, fluorometholone 0.05 w/v % or 0.1 w/v % or indomethacin 0.2 w/v % or 1.0 w/v % was used.

[2] = Surface tension of aqueous suspension (Du Noüy tension meter K122); assay type: physicochemical
Description: as §1

[3] = fluorometholone 0.05 w/v % suspension, 0.0001 to 0.002 w/v % HPMC
[4] = fluorometholone 0.1 w/v % suspension, 0.000005 to 0.0001 w/v % HPMC
[5] = fluorometholone 0.1 w/v % suspension, 0.0001 to 0.01 w/v % HPMC
[6] = fluorometholone 0.1 w/v % suspension, 0.0003 to 0.002 w/v % PVP
[7] = fluorometholone 0.1 w/v % suspension, MC 0.0001 w/v % or less
[8] = fluorometholone 0.05 w/v % suspension
[9] = fluorometholone 0.1 w/v % suspension
[10] = fluorometholone 0.1 w/v % suspension, MC
[11] = fluorometholone 0.1 w/v % suspension, PVP
[12] = indomethacin 0.2 w/v % suspension, HPMC below 0.0001 w/v %
[13] = indomethacin 1.0 w/v % suspension, HPMC less than 0.0005 w/v %
[14] = indomethacin 0.2 w/v % suspension
[15] = indomethacin 1.0 w/v % suspension

condition of the dispersion [1, 3]: satisfactory
time required for redispersion [1, 3]: about 6 seconds
time required for redispersion [1, 4]: 2 s
redispersion time [1, 5]: less than 4 seconds
condition of the dispersion [1, 6]: satisfactory
time necessary for redispersion [1, 6]: about 6 seconds
redispersion time ([1]; fluorometholone 0.1 w/v % suspension, HPMC over 0.01 w/v %): exceeded 5 seconds
redispersion time [1, 7]: ≤ 2 s
redispersion time ([1]; fluorometholone 0.1 w/v % suspension, MC over 0.01 w/v %): ~20 s
redispersion time ([1]; fluorometholone 0.1 w/v % suspension, PVP in excess of 0.002 w/v %): ≥ 18 s
surface tension ([2]; fluorometholone 0.05 w/v % suspension, 0.0001 w/v % HPMC): 65.1 mN/m
surface tension ([2]; fluorometholone 0.05 w/v % suspension, 0.001 w/v % PVP): 69.5 mN/m
surface tension ([2]; fluorometholone 0.05 w/v % suspension, 0.002 w/v % HPMC): 50.5 mN/m
HPMC concentration at which the decrease in surface tension almost ceased [2, 8]: 0.002 w/v %
HPMC concentration at which the surface tension began to decline [2, 8]: 0.0001 w/v %
PVP concentration at which the decrease in surface tension almost ceased ([2]; fluorometholone 0.05 w/v % suspension, PVP): 0.001 w/v %
surface tension ([2]; fluorometholone 0.05 w/v % suspension, PVP at the concentration where the decline began (printed 0.0902 w/v % PVC)): 72.3 mN/m
surface tension ([2]; fluorometholone 0.1 w/v % suspension, 0.002 w/v % PVP): 69.5 mN/m
surface tension ([2]; fluorometholone 0.1 w/v % suspension, 0.01 w/v % MC): 54.5 mN/m
HPMC concentration at which the decrease in surface tension almost ceased [2, 9]: 0.01 w/v
HPMC concentration at which the surface tension began to decline [2, 9]: 0.0001 w/v %
MC concentration at which the decrease in surface tension almost ceased [2, 10]: 0.01 w/v %
MC concentration at which the surface tension began to decline [2, 10]: 0.0001 w/v %
surface tension ([2]; fluorometholone 0.1 w/v % suspension, MC 0.0001 w/v % and below): ~72.5 mN/m
PVP concentration at which the decrease in surface tension almost ceased [2, 11]: 0.002 w/v %
PVP concentration at which the surface tension began to decline [2, 11]: 0.0003 w/v %
surface tension ([2]; fluorometholone 0.1 w/v % suspension, PVP less than 0.0003 w/v %): ~72.5 mN/m
Compound: CC(=O)[C@@]1(O)CC[C@H]2[C@@H]3C[C@H](C)C4=CC(=O)C=C[C@]4(C)[C@@]3(F)[C@@H](O)C[C@@]21C [fluorometholone]
condition of the redispersed particles [1, 4]: the dispersed particles aggregated and floated, failing to give a uniform suspension
condition of the redispersed particles [1, 5]: a uniform suspension was obtained without aggregation of suspended particles
condition of the redispersed particles ([1]; fluorometholone 0.1 w/v % suspension, 0.0001 to 0.01 w/v % MC): redispersion taking place rapidly without aggregation of dispersed particles
condition of the redispersed particles [1, 7]: the dispersed particles aggregated and floated, failing to give a uniform suspension

redispersion time [1, 12]: ≤ 7 s
redispersion time ([1]; indomethacin 0.2 w/v % suspension, HPMC over 0.01 w/v %): exceeding 12 seconds
redispersion time ([1]; indomethacin 1.0 w/v % suspension, HPMC exceeded 0.005 w/v %): more than 20 seconds
redispersion time [1, 13]: not more than 7 seconds
surface tension ([2]; indomethacin 0.2 w/v % suspension, 0.01 w/v % HPMC): 48 mN/m
HPMC concentration at which the decrease in surface tension almost ceased [2, 14]: 0.01 w/v %
HPMC concentration at which the surface tension began to decline [2, 14]: 0.0001 w/v %
surface tension ([2]; indomethacin 0.2 w/v % suspension, HPMC less than 0.0001 w/v %): ~72 mN/m
surface tension ([2]; indomethacin 1.0 w/v % suspension, 0.005 w/v % HPMC): 49.7 mN/m
HPMC concentration at which the decrease in surface tension almost ceased [2, 15]: 0.005 w/v %
HPMC concentration at which the surface tension began to decline [2, 15]: 0.0005 w/v %
surface tension ([2]; indomethacin 1.0 w/v % suspension, HPMC below 0.0005 w/v %): ~72.73 mN/m
Compound: COc1ccc2c(c1)c(CC(=O)O)c(C)n2C(=O)c1ccc(Cl)cc1 [indomethacin]
condition of the redispersed particles ([1]; indomethacin 0.2 w/v % suspension, 0.0001 to 0.01 w/v % HPMC): the drug being rapidly redispersed without aggregation
condition of the redispersed particles [1, 12]: the dispersed particles aggregated and floated, failing to give a uniform suspension
condition of the redispersed particles ([1]; indomethacin 1.0 w/v % suspension, 0.0005 to 0.005 w/v % HPMC): the drug particles being rapidly redispersed without aggregation
condition of the redispersed particles [1, 13]: the dispersed particles aggregated and floated, failing to give a uniform suspension
